How the values were obtained:
85 serine hydrolases = conditions: 33.3 μM to 10 nM; semiquantitative
Trypsin = test: Chromogenic TLSP activity assay, trypsin; assay type: biochemical; conditions: read-out: Trypsin IC50; chromogenic enzyme inhibition assay
[1] = target: human ENaCs (α, β, and γ subunits) (Homo sapiens, UniProt P37088+P51168+P51170); test: ENaC inhibition assay; assay type: cell-based; conditions: 10 μM compound; transfected HEK-293 cells
[2] = target: Mouse uPA (active mouse urokinase, HMW) (Mus musculus, UniProt P06869)
Sequence of Mouse uPA (active mouse urokinase, HMW) (P06869 180-433 limits assumed): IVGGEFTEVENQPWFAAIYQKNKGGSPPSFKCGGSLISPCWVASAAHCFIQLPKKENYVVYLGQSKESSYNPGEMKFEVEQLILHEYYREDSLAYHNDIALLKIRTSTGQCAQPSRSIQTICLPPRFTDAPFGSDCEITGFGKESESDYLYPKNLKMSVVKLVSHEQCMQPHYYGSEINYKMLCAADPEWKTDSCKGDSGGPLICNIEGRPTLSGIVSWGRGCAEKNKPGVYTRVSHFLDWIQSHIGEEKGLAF
Sequence of Mouse uPA (active mouse urokinase, HMW) (P06869 21-178 partner limits assumed): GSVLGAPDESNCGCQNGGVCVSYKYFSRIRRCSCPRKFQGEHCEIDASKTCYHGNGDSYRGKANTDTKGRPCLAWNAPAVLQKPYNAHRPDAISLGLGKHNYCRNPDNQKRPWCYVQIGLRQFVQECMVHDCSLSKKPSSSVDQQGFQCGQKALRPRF

uPA = uPA (Homo sapiens, UniProt P00749); test: EnPlex activity-based protein profiling, uPA; conditions: 33.3 μM to 10 nM; semiquantitative
[3] = target: low molecular weight human uPA (Homo sapiens, UniProt P00749); test: Fluorometric uPA activity assay; assay type: biochemical; conditions: relative to HMA 5
[4] = system: AsPC-1 human pancreatic cancer cells + human pancreatic stellate cells; test: Orthotopic xenograft mouse model of pancreatic cancer; conditions: for liver metastases: 18 or 26 10 mg/kg ip daily for 28 days, compared to gemcitabine

Sequence of human ENaCs (α, β, and γ subunits) (P51170 whole entry): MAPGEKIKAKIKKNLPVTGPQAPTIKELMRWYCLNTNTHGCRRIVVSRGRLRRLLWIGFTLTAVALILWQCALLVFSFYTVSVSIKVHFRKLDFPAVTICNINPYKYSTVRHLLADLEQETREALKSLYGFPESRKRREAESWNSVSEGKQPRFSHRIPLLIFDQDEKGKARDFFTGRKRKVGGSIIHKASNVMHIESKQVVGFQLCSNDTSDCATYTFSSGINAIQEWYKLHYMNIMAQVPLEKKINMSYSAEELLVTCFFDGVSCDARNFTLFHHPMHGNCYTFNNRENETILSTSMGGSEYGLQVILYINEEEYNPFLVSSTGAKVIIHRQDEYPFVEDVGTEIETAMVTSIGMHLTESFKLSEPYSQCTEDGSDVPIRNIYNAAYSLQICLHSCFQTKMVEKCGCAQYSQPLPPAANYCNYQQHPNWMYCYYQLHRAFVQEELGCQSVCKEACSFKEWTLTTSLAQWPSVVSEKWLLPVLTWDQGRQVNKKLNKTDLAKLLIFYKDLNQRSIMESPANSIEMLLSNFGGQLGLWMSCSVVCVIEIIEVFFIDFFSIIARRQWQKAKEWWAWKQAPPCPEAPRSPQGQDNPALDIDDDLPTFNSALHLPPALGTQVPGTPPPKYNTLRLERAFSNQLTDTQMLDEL
Sequence of human ENaCs (α, β, and γ subunits) (P37088 whole entry): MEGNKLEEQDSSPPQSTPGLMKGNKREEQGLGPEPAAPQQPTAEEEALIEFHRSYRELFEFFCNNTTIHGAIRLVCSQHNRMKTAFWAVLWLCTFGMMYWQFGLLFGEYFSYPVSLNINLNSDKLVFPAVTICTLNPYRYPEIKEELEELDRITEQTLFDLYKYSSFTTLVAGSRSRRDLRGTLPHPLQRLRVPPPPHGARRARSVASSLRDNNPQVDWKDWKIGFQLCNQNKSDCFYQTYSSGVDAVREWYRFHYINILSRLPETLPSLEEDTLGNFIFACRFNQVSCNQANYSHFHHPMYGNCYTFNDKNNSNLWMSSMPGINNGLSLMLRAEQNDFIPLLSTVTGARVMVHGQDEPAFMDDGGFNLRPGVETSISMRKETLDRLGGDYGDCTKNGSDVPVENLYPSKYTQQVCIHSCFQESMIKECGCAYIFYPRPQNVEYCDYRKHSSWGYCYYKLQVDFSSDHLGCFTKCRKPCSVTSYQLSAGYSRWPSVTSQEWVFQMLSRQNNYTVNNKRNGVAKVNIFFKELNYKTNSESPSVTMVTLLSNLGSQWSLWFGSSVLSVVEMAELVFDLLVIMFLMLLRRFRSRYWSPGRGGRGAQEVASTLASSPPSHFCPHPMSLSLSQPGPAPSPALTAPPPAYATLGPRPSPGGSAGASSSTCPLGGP
Sequence of human ENaCs (α, β, and γ subunits) (P51168 whole entry): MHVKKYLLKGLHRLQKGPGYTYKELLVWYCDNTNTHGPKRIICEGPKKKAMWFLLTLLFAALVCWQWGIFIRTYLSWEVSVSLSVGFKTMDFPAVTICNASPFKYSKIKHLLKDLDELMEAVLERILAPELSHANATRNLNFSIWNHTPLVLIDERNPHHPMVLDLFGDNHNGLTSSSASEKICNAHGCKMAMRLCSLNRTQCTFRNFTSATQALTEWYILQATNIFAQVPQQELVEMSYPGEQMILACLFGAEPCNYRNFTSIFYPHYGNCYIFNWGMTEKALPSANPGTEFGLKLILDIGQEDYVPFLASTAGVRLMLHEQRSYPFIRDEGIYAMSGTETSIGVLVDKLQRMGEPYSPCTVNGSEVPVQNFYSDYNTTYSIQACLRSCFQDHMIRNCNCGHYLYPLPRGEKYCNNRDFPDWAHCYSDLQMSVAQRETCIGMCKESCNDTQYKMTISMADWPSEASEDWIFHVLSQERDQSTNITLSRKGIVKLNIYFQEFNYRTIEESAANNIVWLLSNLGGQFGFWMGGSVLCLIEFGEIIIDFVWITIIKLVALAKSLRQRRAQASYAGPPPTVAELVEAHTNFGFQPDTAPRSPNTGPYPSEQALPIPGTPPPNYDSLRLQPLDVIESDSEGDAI

N=C(N)NC(=O)c1nc(Cl)c(N2CCCCCC2)nc1N [Compound 5, 5-N,N-(hexamethylene)amiloride, reference compound]
serine hydrolases inhibited in EnPlex screen (85 serine hydrolases): activity against the highly homologous S28 protease family members dipeptidyl peptidase 2 (DPP7) and prolylcarboxypeptidase (PRCP) | IC50 (Trypsin): > 10 µM | inhibition of ENaC [1]: greatly reduced activity | decrease in affinity for mouse uPA versus human uPA [2]: ~7 fold | inhibitory activity against uPA in EnPlex screen (uPA): not observed

N=C(N)NC(=O)c1nc(-c2cncc3ccccc23)c(N2CCCCCC2)nc1N [Compound 13, 3-Amino-5-(azepan-1-yl)-N-carbamimidoyl-6-(isoquinolin-4-yl)pyrazine-2-carboxamide]
decrease in uPA potency relative to HMA [3]: ~3 fold

Cn1cc(-c2nc(C(=O)NC(=N)N)c(N)nc2N2CCCCCC2)cn1 [Compound 14, 3-Amino-5-(azepan-1-yl)-N-carbamimidoyl-6-(1-methyl-1H-pyrazol-4-yl)pyrazine-2-carboxamide]
increase in uPA potency relative to HMA [3]: ~ 2.7 fold

Nc1ccn([C@@H]2O[C@H](CO)[C@@H](O)C2(F)F)c(=O)n1 [gemcitabine, reference compound]
effect on end point primary tumor volume ([4]; gemcitabine 75 mg/kg po twice weekly, 18 or 26 10 mg/kg ip daily, 28 days): only modest inhibitory effects

N=C(N)NC(=O)c1nc(-c2cc3ccccc3o2)c(N2CCCCCC2)nc1N [Compound 18, 3-Amino-5-(azepan-1-yl)-6-(benzofuran-2-yl)-N-carbamimidoylpyrazine-2-carboxamide]
serine hydrolases inhibited in EnPlex screen (85 serine hydrolases): inhibiting plasma kallikrein (KLKb1) and trypsin | IC50 (Trypsin): > 10 µM | liver metastases [4]: reduced | decrease in affinity for mouse uPA versus human uPA [2]: 10- to 30 fold

COc1ncc(-c2nc(C(=O)NC(=N)N)c(N)nc2N2CCCCCC2)cn1 [Compound 26, 3-Amino-5-(azepan-1-yl)-N-carbamimidoyl-6-(2-methoxypyrimidin-5-yl)pyrazine-2-carboxamide]
serine hydrolases inhibited in EnPlex screen (85 serine hydrolases): slight activity against C1s, plasma kallikrein, plasmin, prolylcarboxy peptidase, trypsin, and transmembrane protease serine 11D (TMPRSS11d) | liver metastases [4]: no macroscopic metastatic lesions observed | decrease in affinity for mouse uPA versus human uPA [2]: 10- to 30 fold

N=C(N)NC(=O)c1nc(-c2ccccc2)c(N2CCCCCC2)nc1N [Compound 9]
decrease in uPA potency relative to HMA [3]: ~ 3.7 fold

N=C(N)NC(=O)c1nc(-c2cncnc2)c(N2CCCCCC2)nc1N [Compound 25, 3-Amino-5-(azepan-1-yl)-N-carbamimidoyl-6-(pyrimidin-5-yl)pyrazine-2-carboxamide]
serine hydrolases inhibited in EnPlex screen (85 serine hydrolases): slight inhibition of trypsin being the only off-target TLSP activity observed | increase in uPA potency relative to HMA [3]: ~ 12.6 fold

N=C(N)NC(=O)c1nc(-c2ccco2)c(N2CCCCCC2)nc1N [Compound 22, 3-Amino-5-(azepan-1-yl)-N-carbamimidoyl-6-(furan-2-yl)-pyrazine-2-carboxamide]
increase in uPA potency relative to HMA [3]: ~ 8.7 fold

— publication PMC6290913 (Journal of medicinal chemistry, 2018)
